Target: recombinant Human Phosphodiesterase B2 (PDE4B2) (Homo sapiens, UniProt Q07343)
Assay: Human Phosphodiesterase B2 Alpha Screen Assay
Assay type: biochemical
Settings: cAMP substrate, Alpha Screen cAMP kit, 60 minutes at room temperature
Procedure: Human Phosphodiesterase B2 Alpha Screen Assay
The assay uses recombinant Human Phosphodiesterase B2 (PDE4B2) produced in house (PrAZL0133), stored at −20° C. The substrate uses cAMP, part of the Alpha Screen cAMP kit (Perkin Elmer, Cat# 6760625M), stored at 4° C. The Alpha Screen kit also includes biotinylated cAMP, acceptor and donor beads.
The assay additions were as follows: Test compounds and controls were added to white 384-well flat-bottom plates (Greiner, Cat# 781075), 0.2 μl in 100% DMSO, followed by 10 μl PDE4B2 in reaction buffer. The reaction buffer constitution was: 50 mM Tris (pH 7.5), 8.3 mM MgCl2, 1.7 mM EGTA and 0.01% (w/v) Brij®35. The enzyme and the compounds were incubated at room temperature for 15 minutes. Then 10 μl cAMP in reaction buffer was added. The assay was stopped after 60 minutes incubation at room temperature by adding 10 μl acceptor beads in detection buffer with 40 mM EDTA. The detection buffer constitution was: 5 mM Tris (pH 7.5), 0.1% (w/v) BSA and 0.1% (v/v) Tween 20. This addition followed by an addition of 10 μl donor beads in detection buffer, with biotinylated cAMP. The plates were then incubated, dark at room temperature, for 5 hours followed by measurement on a Fusion™-α analyser. IC50 values (presented in Table 1) were determined using Xlfit curve fitting using model 205.

Chain of recombinant Human Phosphodiesterase B2 (PDE4B2) (Q07343 1-564 isoform Q07343-2): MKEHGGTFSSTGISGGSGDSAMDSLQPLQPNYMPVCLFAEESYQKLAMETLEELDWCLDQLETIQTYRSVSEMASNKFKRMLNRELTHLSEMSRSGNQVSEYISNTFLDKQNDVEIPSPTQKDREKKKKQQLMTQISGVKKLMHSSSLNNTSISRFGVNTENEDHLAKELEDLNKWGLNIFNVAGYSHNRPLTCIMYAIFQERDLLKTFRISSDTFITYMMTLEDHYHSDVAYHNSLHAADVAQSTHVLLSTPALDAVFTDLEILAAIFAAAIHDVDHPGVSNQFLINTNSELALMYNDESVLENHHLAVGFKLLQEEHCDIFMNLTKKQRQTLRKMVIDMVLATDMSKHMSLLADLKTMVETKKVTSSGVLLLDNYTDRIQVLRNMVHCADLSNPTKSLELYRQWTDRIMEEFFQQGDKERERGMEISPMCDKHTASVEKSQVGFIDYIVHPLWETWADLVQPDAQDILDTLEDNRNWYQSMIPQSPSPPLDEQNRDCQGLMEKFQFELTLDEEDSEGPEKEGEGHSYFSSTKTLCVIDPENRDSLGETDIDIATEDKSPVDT

| IC50 | SMILES |
| --- | --- |
| 2.9 nM | CSc1cccc(-n2c(=O)n([C@H]3CC[C@@H](NC(=O)c4cc(CO)ccc4O)CC3)c(=O)c3cc(F)cnc32)c1 [Example 36, N-{cis-4-[6-fluoro-1-[3-(methylthio)phenyl]-2,4-dioxo-1,4-dihydropyrido[2,3-d]pyrimidin-3(2H)-yl]cyclohexyl}-2-hydroxy-5-(hydroxymethyl)benzamide] |
| 0.5 nM | CSc1cccc(-n2c(=O)n([C@H]3CC[C@@H](NC(=O)[C@H](O)c4ccccc4)CC3)c(=O)c3cc(F)cnc32)c1 [Example 37, (2R)-N-{cis-4-[6-fluoro-1-[3-(methylthio)phenyl]-2,4-dioxo-1,4-dihydropyrido[2,3-d]pyrimidin-3(2H)-yl]cyclohexyl}-2-hydroxy-2-phenylacetamide] |
| < 16 nM | CSc1cccc(-n2c(=O)n([C@H]3CC[C@@H](NC(=O)[C@@H](O)c4ccccc4)CC3)c(=O)c3cc(F)cnc32)c1 [Example 38, (2S)-N-{cis-4-[6-fluoro-1-[3-(methylthio)phenyl]-2,4-dioxo-1,4-dihydropyrido[2,3-d]pyrimidin-3(2H)-yl]cyclohexyl}-2-hydroxy-2-phenylacetamide] |
| 23.7 nM | CSc1cccc(-n2c(=O)n([C@H]3CC[C@@H](NC(=O)CO)CC3)c(=O)c3cc(F)cnc32)c1 [Example 39, N-{cis-4-[6-fluoro-1-[3-(methylthio)phenyl]-2,4-dioxo-1,4-dihydropyrido[2,3-d]pyrimidin-3(2H)-yl]cyclohexyl}-2-hydroxyacetamide] |
| 90.6 nM | CS(=O)(=O)c1cccc(-n2c(=O)n([C@H]3CC[C@@H](NC(=O)c4cc(Cl)ccc4O)CC3)c(=O)c3cc(F)cnc32)c1 [Example 40, 5-chloro-N-{cis-4-[6-fluoro-1-[3-(methylsulfonyl)phenyl]-2,4-dioxo-1,4-dihydropyrido[2,3-d]pyrimidin-3(2H)-yl]cyclohexyl}-2-hydroxybenzamide] |
| 51.9 nM | CS(=O)(=O)c1cccc(-n2c(=O)n([C@H]3CC[C@@H](NC(=O)c4cc(CO)ccc4O)CC3)c(=O)c3cc(F)cnc32)c1 [Example 41, N-{cis-4-[6-fluoro-1-[3-(methylsulfonyl)phenyl]-2,4-dioxo-1,4-dihydropyrido[2,3-d]pyrimidin-3(2H)-yl]cyclohexyl}-2-hydroxy-5-(hydroxymethyl)benzamide] |
| < 16 nM | CS(=O)(=O)c1cccc(-n2c(=O)n([C@H]3CC[C@@H](NC(=O)[C@H](O)c4ccccc4)CC3)c(=O)c3cc(F)cnc32)c1 [Example 42, (2R)-N-{cis-4-[6-fluoro-1-[3-(methylsulfonyl)phenyl]-2,4-dioxo-1,4-dihydropyrido[2,3-d]pyrimidin-3(2H)-yl]cyclohexyl}-2-hydroxy-2-phenylacetamide] |

Second part, the compound before the results:

| SMILES | IC50 |
| --- | --- |
| O=C(CNC(=O)c1ccccc1O)N[C@H]1CC[C@@H](n2c(=O)c3cc(F)cnc3n(-c3ccc(F)c(F)c3)c2=O)CC1 [Example 24, N-[2-({cis-4-[1-(3,4-difluorophenyl)-6-fluoro-2,4-dioxo-1,4-dihydropyrido[2,3-d]pyrimidin-3(2H)-yl]cyclohexyl}amino)-2-oxoethyl]-2-hydroxybenzamide] | 0.6 nM |
| COC(=O)c1ccc(C(=O)N[C@H]2CC[C@@H](n3c(=O)c4cc(F)cnc4n(-c4ccc(F)c(F)c4)c3=O)CC2)cc1 [Example 25, methyl 4-[({cis-4-[1-(3,4-difluorophenyl)-6-fluoro-2,4-dioxo-1,4-dihydropyrido[2,3-d]pyrimidin-3(2H)-yl]cyclohexyl}amino)carbonyl]benzoate] | 1.9 nM |
| COc1ccc(C(=O)N[C@H]2CC[C@@H](n3c(=O)c4cc(F)cnc4n(-c4ccc(F)c(F)c4)c3=O)CC2)cc1O [Example 26, N-{cis-4-[1-(3,4-difluorophenyl)-6-fluoro-2,4-dioxo-1,4-dihydropyrido[2,3-d]pyrimidin-3(2H)-yl]cyclohexyl}-3-hydroxy-4-methoxybenzamide] | 1 nM |
| COC(=O)CCCC(=O)N[C@H]1CC[C@@H](n2c(=O)c3cc(F)cnc3n(-c3ccc(F)c(F)c3)c2=O)CC1 [Example 27, methyl 5-({cis-4-[1-(3,4-difluorophenyl)-6-fluoro-2,4-dioxo-1,4-dihydropyrido[2,3-d]pyrimidin-3(2H)-yl]cyclohexyl}amino)-5-oxopentanoate] | 1.7 nM |
| O=C(Cc1cccc(O)c1)N[C@H]1CC[C@@H](n2c(=O)c3cc(F)cnc3n(-c3ccc(F)c(F)c3)c2=O)CC1 [Example 28, N-{cis-4-[1-(3,4-difluorophenyl)-6-fluoro-2,4-dioxo-1,4-dihydropyrido[2,3-d]pyrimidin-3(2H)-yl]cyclohexyl}-2-(3-hydroxyphenyl)acetamide] | 0.9 nM |
| COC(=O)c1cccc(C(=O)N[C@H]2CC[C@@H](n3c(=O)c4cc(F)cnc4n(-c4ccc(F)c(F)c4)c3=O)CC2)c1 [Example 29, methyl 3-[({cis-4-[1-(3,4-difluorophenyl)-6-fluoro-2,4-dioxo-1,4-dihydropyrido[2,3-d]pyrimidin-3(2H)-yl]cyclohexyl}amino)carbonyl]benzoate] | 1.2 nM |
| O=C(N[C@H]1CC[C@@H](n2c(=O)c3cc(F)cnc3n(-c3ccc(F)c(F)c3)c2=O)CC1)c1c(O)cccc1F [Example 30, N-{cis-4-[1-(3,4-difluorophenyl)-6-fluoro-2,4-dioxo-1,4-dihydropyrido[2,3-d]pyrimidin-3(2H)-yl]cyclohexyl}-2-fluoro-6-hydroxybenzamide] | 1.1 nM |
| O=C(CCc1cccc(O)c1)N[C@H]1CC[C@@H](n2c(=O)c3cc(F)cnc3n(-c3ccc(F)c(F)c3)c2=O)CC1 [Example 31, N-{cis-4-[1-(3,4-difluorophenyl)-6-fluoro-2,4-dioxo-1,4-dihydropyrido[2,3-d]pyrimidin-3(2H)-yl]cyclohexyl}-3-(3-hydroxyphenyl)propanamide] | 1.5 nM |
| O=C(N[C@H]1CC[C@@H](n2c(=O)c3cc(F)cnc3n(-c3ccc(F)c(F)c3)c2=O)CC1)c1n[nH]c2ccccc12 [Example 32, N-{cis-4-[1-(3,4-difluorophenyl)-6-fluoro-2,4-dioxo-1,4-dihydropyrido[2,3-d]pyrimidin-3(2H)-yl]cyclohexyl}-1H-indazole-3-carboxamide] | 0.6 nM |
| O=C(N[C@H]1CC[C@@H](n2c(=O)c3cc(F)cnc3n(-c3ccc(F)c(F)c3)c2=O)CC1)c1cn2ccccc2n1 [Example 33, N-{cis-4-[1-(3,4-difluorophenyl)-6-fluoro-2,4-dioxo-1,4-dihydropyrido[2,3-d]pyrimidin-3(2H)-yl]cyclohexyl}imidazo[1,2-a]pyridine-2-carboxamide] | 0.5 nM |
| CSc1cccc(-n2c(=O)n([C@H]3CC[C@@H](NC(=O)c4cc(Cl)ccc4O)CC3)c(=O)c3cc(F)cnc32)c1 [Example 34, 5-chloro-N-{cis-4-[6-fluoro-1-[3-(methylthio)phenyl]-2,4-dioxo-1,4-dihydropyrido[2,3-d]pyrimidin-3(2H)-yl]cyclohexyl}-2-hydroxybenzamide] | 3.2 nM |
| CSc1cccc(-n2c(=O)n([C@H]3CC[C@@H](NC(=O)c4cc(C)ccc4O)CC3)c(=O)c3cc(F)cnc32)c1 [Example 35, N-{cis-4-[6-fluoro-1-[3-(methylthio)phenyl]-2,4-dioxo-1,4-dihydropyrido[2,3-d]pyrimidin-3(2H)-yl]cyclohexyl}-2-hydroxy-5-methylbenzamide] | 1.4 nM |

Source: patent publication US20080227797A1, “Pyridopyrimidine Derivatives as Pde4 Inhibitors for the Treatment of Inflammatory and Immune Diseases” (ASTRAZENECA AB, priority 2005, published 2008)
